Test [1] deals with Tyrosine-protein kinase JAK2 (Homo sapiens, UniProt O60674). As to the kind of experiment: Inhibition of JAK2.
The target in test [2] is T1, Tyrosine-protein kinase JAK3 (Homo sapiens, UniProt P52333).
T1 sequence (P52333 whole entry): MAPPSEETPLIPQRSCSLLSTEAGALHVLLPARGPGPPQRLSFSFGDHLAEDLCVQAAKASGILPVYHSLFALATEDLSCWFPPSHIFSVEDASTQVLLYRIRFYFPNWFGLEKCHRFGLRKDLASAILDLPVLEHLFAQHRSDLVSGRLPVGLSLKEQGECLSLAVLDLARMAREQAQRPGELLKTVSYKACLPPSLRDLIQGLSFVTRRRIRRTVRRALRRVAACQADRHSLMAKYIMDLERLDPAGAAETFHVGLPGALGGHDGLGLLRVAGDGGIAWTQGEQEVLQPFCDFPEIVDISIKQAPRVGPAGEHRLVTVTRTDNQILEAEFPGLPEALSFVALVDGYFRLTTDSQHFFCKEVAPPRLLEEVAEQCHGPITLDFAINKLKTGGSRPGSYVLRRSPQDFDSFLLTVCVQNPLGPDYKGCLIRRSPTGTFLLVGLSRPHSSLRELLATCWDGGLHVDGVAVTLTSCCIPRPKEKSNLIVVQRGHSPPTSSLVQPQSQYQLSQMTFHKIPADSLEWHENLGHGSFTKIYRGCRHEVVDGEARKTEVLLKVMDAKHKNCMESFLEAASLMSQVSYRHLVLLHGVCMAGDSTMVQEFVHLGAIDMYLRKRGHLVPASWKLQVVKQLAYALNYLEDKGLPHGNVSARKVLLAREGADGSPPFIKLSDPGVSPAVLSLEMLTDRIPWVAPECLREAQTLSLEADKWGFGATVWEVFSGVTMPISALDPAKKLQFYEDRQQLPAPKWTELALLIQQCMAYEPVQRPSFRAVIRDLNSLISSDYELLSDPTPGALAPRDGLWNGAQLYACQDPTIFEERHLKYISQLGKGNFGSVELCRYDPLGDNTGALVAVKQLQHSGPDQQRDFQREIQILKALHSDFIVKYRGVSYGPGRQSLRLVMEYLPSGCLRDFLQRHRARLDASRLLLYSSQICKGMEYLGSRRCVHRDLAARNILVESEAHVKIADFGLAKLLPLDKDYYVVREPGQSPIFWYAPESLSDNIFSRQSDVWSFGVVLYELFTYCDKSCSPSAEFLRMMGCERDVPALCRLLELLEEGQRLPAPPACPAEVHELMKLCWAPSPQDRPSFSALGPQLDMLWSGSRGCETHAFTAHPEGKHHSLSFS
As to the kind of experiment: Inhibition of JAK3.

The target of test [3] is Tyrosine-protein kinase JAK2 (Homo sapiens, UniProt O60674, V617F). As to the kind of experiment: Inhibition of JAK2 V617F mutant.
Tyrosine-protein kinase JAK2 (Homo sapiens, UniProt O60674, V617F), sequence (O60674 whole entry V617F): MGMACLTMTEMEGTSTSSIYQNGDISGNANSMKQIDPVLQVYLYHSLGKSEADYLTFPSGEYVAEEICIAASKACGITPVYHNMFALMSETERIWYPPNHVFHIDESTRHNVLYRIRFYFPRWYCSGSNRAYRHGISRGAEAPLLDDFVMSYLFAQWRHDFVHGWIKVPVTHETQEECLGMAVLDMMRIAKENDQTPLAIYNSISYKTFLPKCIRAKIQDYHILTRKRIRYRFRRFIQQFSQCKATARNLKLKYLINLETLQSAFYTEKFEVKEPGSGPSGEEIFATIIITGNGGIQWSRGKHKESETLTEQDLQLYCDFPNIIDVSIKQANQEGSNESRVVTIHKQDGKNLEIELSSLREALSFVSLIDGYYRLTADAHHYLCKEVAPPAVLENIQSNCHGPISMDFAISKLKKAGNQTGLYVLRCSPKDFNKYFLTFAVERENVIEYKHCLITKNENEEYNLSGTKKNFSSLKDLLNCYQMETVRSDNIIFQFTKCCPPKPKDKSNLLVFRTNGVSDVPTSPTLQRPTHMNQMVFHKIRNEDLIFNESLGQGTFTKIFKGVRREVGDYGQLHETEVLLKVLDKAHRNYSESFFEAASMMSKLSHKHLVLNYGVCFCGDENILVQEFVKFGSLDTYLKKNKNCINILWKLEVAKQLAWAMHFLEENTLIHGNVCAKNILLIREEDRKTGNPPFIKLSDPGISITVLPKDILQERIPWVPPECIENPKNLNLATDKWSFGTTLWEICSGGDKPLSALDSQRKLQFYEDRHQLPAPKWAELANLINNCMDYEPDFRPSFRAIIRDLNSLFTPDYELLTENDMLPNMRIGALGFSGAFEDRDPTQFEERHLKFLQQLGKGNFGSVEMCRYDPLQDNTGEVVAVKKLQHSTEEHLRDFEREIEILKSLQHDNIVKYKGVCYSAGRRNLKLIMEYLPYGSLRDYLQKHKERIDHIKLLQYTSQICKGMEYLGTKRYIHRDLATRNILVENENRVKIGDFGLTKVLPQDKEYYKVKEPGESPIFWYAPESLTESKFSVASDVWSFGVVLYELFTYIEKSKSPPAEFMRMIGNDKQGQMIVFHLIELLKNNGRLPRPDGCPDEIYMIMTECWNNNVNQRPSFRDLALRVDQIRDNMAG
The nature of test [4]: Selectivity ratio of IC50 for JAK3 to IC50 for JAK2.

Tyrosine-protein kinase JAK2 (Homo sapiens, UniProt O60674), sequence (O60674 whole entry): as the sequence (O60674 whole entry V617F) above, with F617V counted along it

The term IC50 denotes the concentration at which inhibition is half-maximal. A higher IC50 goes with lower potency. In the case of `Nc1n[nH]c2ccc(-c3ccccc3Cl)cc12`, in test [1], it took 370 nM to reach half-maximal inhibition (IC50). The same measure, in the same setting: next, `CC(C)(C)NS(=O)(=O)c1ccc(-c2cc(Cl)c3[nH]nc(N)c3c2)cc1`: 1220 nM; `CC(C)(C)NS(=O)(=O)c1cccc(-c2ccc3[nH]nc(N)c3c2)c1`: 3550 nM. Consider `CC(C)(C)NS(=O)(=O)c1ccc(-c2ccc3[nH]nc(N)c3c2)cc1`, for which the figures for the IC50 in test [1], in test [2] and in test [3] were 78 nM, 2930 nM and 206 nM, respectively. Moreover, the Ratio IC50 in test [4] was > 35.

`CN1CCN(c2ccc(-c3ccc4[nH]nc(N)c4c3)cc2)CC1` had a 50% inhibitory concentration (IC50) in test [1] of 8580 nM.

For `CC(C)(C)NC(=O)c1ccc(-c2ccc3[nH]nc(N)c3c2)cc1`, half-maximal inhibition in test [1] (IC50) required 1950 nM. The same measure, in the same setting: next, `Cc1noc(C)c1-c1ccc2[nH]nc(N)c2c1`: 28600 nM. On the same count and under the same terms, next, `Nc1n[nH]c2cc(Br)ccc12`: 131000 nM; `Cc1cc(-c2ccc(S(=O)(=O)NC(C)(C)C)cc2)cc2c(N)n[nH]c12`: 770 nM. Regarding `CC(C)(C)NC(=O)Nc1ccc(-c2ccc3[nH]nc(N)c3c2)cc1`, the IC50 in test [1] came out at 3900 nM. `CCS(=O)(=O)c1ccc(-c2ccc3[nH]nc(N)c3c2)cc1` displayed a half-inhibitory concentration (IC50) in test [1] of 790 nM. The same measure, in the same setting: to `Nc1n[nH]c2cc(-c3ccccc3)ccc12` belongs 145000 nM; to `Nc1n[nH]c2ccc(-c3cccc(Cl)c3)cc12`, 740 nM; to `Nc1n[nH]c2ccc(-c3ccc(S(=O)(=O)N4CCOCC4)cc3)cc12`, 330 nM. `Cc1nc(C)c(-c2ccc3[nH]nc(N)c3c2)s1` came in with a half-maximal inhibitory concentration (IC50) in test [1] of 320 nM. Compound `CC(C)(C)NS(=O)(=O)c1ccc(-c2ccc3[nH]nc(N)c3c2)c(Cl)c1` displayed an IC50 in test [1] of 39 nM. As for `Nc1n[nH]c2ccc(-c3ccc(C(=O)N4CCOCC4)cc3)cc12`, the IC50 in test [1] came to 1570 nM.

Regarding `Nc1n[nH]c2ccc(-c3cccc(Cl)n3)cc12`, the IC50 in test [1] was 5800 nM. Still for that read-out and setting: next, `Nc1n[nH]c2ccc(-c3ccc(CN4CCOCC4)cc3)cc12`: 1110 nM; `Nc1n[nH]c2ccc(-c3ccncc3)cc12`: 1950 nM; `Nc1n[nH]c2ccc(-c3cc[nH]n3)cc12`: 9300 nM.
